In patent publication US11040056B2, “Benzimidazoles that enhance the activity of oligonucleotides” (The University of North Carolina at Chapel Hill, priority 2018, dated 2021):

Test system: EGFP654 transgenic mouse
Experiment: In vivo EGFP splice correction in EGFP654 transgenic mice
Method: FIG. 10A-10E. In vivo effects-RNA. EGFP654 mice were treated with SSO623 or a mismatched control (MM) and then received UNC2383 or diluent (N=3). RT-PCR with gel analysis was used to detect correctly or incorrectly spliced EGFP mRNA. The gel images were quantitated using Fiji software. Gel image for liver FIG. 10A. The lower band (87 bp) is correctly spliced EGFP mRNA, while the upper band (160 bp) is uncorrected. FIG. 10B-10E Quantitation of splice correction in liver FIG. 10B, kidney FIG. 10C, intestine FIG. 10D, and lung FIG. 10E. The bars indicate the ratio of correctly spliced to incorrectly spliced mRNA×100. […] EGFP immunostaining was performed in liver, lung, and intestine tissue and analyzed by confocal microscopy. […]
Effects of UNC2383 on endosome stability were monitored in cell culture models as previously described. […] Live cells were imaged by fluorescence confocal microscopy with or without treatment with UNC2383 or its analogs. […] Co-localization of TAMRA labeled SSO 623 with marker proteins was quantitated using Fiji (ImageJ) software and expressed as a Manders' Correlation Coefficient. […] EGFP protein expression was monitored by immunostaining with an anti-EGFP antibody (Abcam) using techniques previously described. […]
PCR techniques. […] The PCR products were separated on 1.5% agarose gels and bands were visualized by staining with Gel RedTMand quantitated using a Biorad ChemiDoc XRS+ scanner. […]

O=C(Nc1nc2ccccc2n1CCN1CCCC1)c1cc2cc(Cl)ccc2o1 [UNC2383]
correctly spliced EGFP message (RT-PCR) (35 mg/kg SSO623 i.p. two days, then 5 mg/kg UNC2383 i.p., liver, kidney, lung, intestine, 5 h): increase in correctly spliced EGFP message | EGFP protein expression (immunostaining) (SSO623 plus UNC2383, bronchi, intestinal crypts, 24 h): expressed EGFP
